Columns and labels:
Format in all cases: cell-based
BCL-XL = molecular target: T1, BCL-XL (Homo sapiens, UniProt Q07817); experiment: Bcl-xL ELISA degradation in MOLT-4 cells, 6 h; details: for DC50: read-out: Bcl-xL ELISA in MOLT-4 degradation 6 h: Mean external-Abs DC50
T1 construct: endogenous in cells; host or cells: MOLT-4
Procedure: The letter codes for BCL-XL DC50 include: A (<0.01 μM); B (0.01-0.1 μM); C (>[…]); D (>0.5-1.0 μM); and E (>1.0 μM). The letter codes for Dmax % include A (>75%); B (50 to 75%); C (<50%).

MOLT-4 cells = experiment: CTG (CellTiter-Glo) cell viability assay, MOLT-4; details: Homo sapiens, MOLT-4, 72 h, 3 day incubation, read-out: CTG Cell Viability Assay - MOLT-4 3 day: Average external-IC50
Summary of the method: (§1)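 IC50 is from a three-parameter logistic fit of CellTiter-Glo luminescence after 3-day treatment of cells seeded at 10,000 per well. Codes: MOLT-4 A <0.1, B 0.1-1.0, C >1.0-3.0, D >3.0 μM; Caki-2 A <0.1, B 0.1-1.0, C >1.0-10.0, D >10.0 μM.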

Caki-2 cells = experiment: CTG (CellTiter-Glo) cell viability assay, Caki-2; details: Homo sapiens, 72 h, 3 day incubation, read-out: CTG Chempartner - Caki-2 3 day: Average external-IC50
Summary of the method: as §1

T1 sequence (Q07817 whole entry): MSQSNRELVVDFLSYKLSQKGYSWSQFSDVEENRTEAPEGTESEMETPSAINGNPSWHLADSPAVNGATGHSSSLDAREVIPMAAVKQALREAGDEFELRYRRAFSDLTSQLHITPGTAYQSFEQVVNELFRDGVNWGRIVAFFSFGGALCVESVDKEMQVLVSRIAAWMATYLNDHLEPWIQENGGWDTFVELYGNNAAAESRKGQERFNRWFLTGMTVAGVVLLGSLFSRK

Dmax (BCL-XL) | DC50 (BCL-XL) | IC50 (MOLT-4 cells) | Compound | IC50 (Caki-2 cells)
> 75% | 0.01 to 0.1 µM | 0.1 to 1 µM | C#Cc1ccc([C@H](CO)NC(=O)[C@@H]2C[C@@H](O)CN2C(=O)[C@@H](NC(=O)CCNCCS(=O)(=O)NC(=O)c2nc(N3CCc4cccc(C(=O)Nc5nc6cccnc6s5)c4C3)ccc2-c2cnn(CC3CCCCC3)c2C)C(C)(C)C)cc1 [I-378] | > 10 µM
> 75% | < 0.01 µM | < 0.1 µM | C#Cc1ccc(CNC(=O)[C@@H]2C[C@@H](O)CN2C(=O)[C@@H](NC(=O)CCCCCS(=O)(=O)NC(=O)c2nc(N(C)c3cc(C)c(Nc4nc5ccccc5s4)nn3)ccc2-c2cnn(CC34CC5CC(CC(C5)C3)C4)c2C)C(C)(C)C)cc1 [I-379] | > 10 µM
> 75% | < 0.01 µM | < 0.1 µM | Cc1ncsc1-c1ccc([C@H](C)NC(=O)[C@@H]2C[C@@H](O)CN2C(=O)[C@@H](NC(=O)C2CCN(c3cccc(S(=O)(=O)NC(=O)c4nc(N5CCc6cccc(C(=O)Nc7nc8ccccc8s7)c6C5)ccc4-c4cnn(CC5CCCCC5)c4C)c3)CC2)C(C)(C)C)cc1 [I-380] | 1 to 10 µM
> 75% | 0.01 to 0.1 µM | 0.1 to 1 µM | Cc1ncsc1-c1ccc([C@H](C)NC(=O)[C@@H]2C[C@@H](O)CN2C(=O)[C@@H](NC(=O)C2CCN(CCCS(=O)(=O)NC(=O)c3nc(N4CCc5cccc(C(=O)Nc6nc7ccccc7s6)c5C4)ccc3-c3cnn(CC4CCCCC4)c3C)CC2)C(C)(C)C)cc1 [I-381] | > 10 µM
> 75% | < 0.01 µM | < 0.1 µM | C#Cc1ccc([C@H](C)NC(=O)[C@@H]2C[C@@H](O)CN2C(=O)[C@@H](NC(=O)CCCCCS(=O)(=O)NC(=O)c2nc(N(C)c3cc(C)c(Nc4nc5ccccc5s4)nn3)ccc2-c2cnn(CC34CC5CC(CC(C5)C3)C4)c2C)C(C)(C)C)cc1 [I-382] | > 10 µM
> 75% | 0.01 to 0.1 µM | 0.1 to 1 µM | Cc1ncsc1-c1ccc(CNC(=O)[C@@H]2C[C@@H](O)CN2C(=O)[C@@H](NC(=O)C2(F)CC2)C(C)(C)C)c(OCCN2CCN(CC[C@H](CSc3ccccc3)Nc3ccc(S(=O)(=O)NC(=O)c4ccc(N5CC6(CC(N7CCC[C@H]7c7ccccc7C7CC7)C6)C5)cc4)cc3S(=O)(=O)C(F)(F)F)CC2)c1 [I-400] | > 10 µM
50 to 75% | 0.1 to 0.5 µM | 0.1 to 1 µM | C#Cc1ccc(CNC(=O)[C@@H]2C[C@@H](O)CN2C(=O)[C@H](c2cc(N3CCN(c4ccc(S(=O)(=O)NC(=O)c5nc(N6CCc7cccc(C(=O)Nc8nc9ccccc9s8)c7C6)ccc5-c5cnn(CC6CCCCC6)c5C)cc4)CC3)no2)C(C)C)cc1 [I-407] | 1 to 10 µM
50 to 75% | < 0.01 µM | < 0.1 µM | C#Cc1ccc(CNC(=O)[C@@H]2C[C@@H](O)CN2C(=O)[C@H](c2cc(N3CCN(c4ccc(S(=O)(=O)NC(=O)c5nc(N6CCc7cccc(C(=O)Nc8nc9ccccc9s8)c7C6)ccc5-c5cnn(CC6CCCCC6)c5C)cc4)CC3)no2)C(C)C)c(OC)c1 [I-408] | > 10 µM
> 75% | 0.01 to 0.1 µM | < 0.1 µM | Cc1ncsc1-c1ccc([C@H](C)NC(=O)[C@@H]2C[C@@H](O)CN2C(=O)[C@@H](NC(=O)C2CCN(c3ccc(S(=O)(=O)NC(=O)c4nc(N5CCc6cccc(C(=O)Nc7nc8ccccc8s7)c6C5)ccc4-c4cnn(CC5(OCCO)CCCCC5)c4C)cc3)CC2)C(C)(C)C)cc1 [I-409] | > 10 µM
> 75% | 0.01 to 0.1 µM | < 0.1 µM | Cc1ncsc1-c1ccc(CNC(=O)[C@@H]2C[C@@H](O)CN2C(=O)[C@@H](NC(=O)[C@@H]2CCN(c3ccc(S(=O)(=O)NC(=O)c4nc(N5CCc6cccc(C(=O)Nc7nc8ccccc8s7)c6C5)ccc4-c4cnn(CC5CCCCC5)c4C)cc3)C2)C(C)(C)C)cc1 [I-410] | > 10 µM
> 75% | 0.01 to 0.1 µM | 0.1 to 1 µM | C#Cc1ccc(CNC(=O)[C@@H]2C[C@@H](O)CN2C(=O)[C@@H](NC(=O)CCN(C)CCS(=O)(=O)NC(=O)c2nc(N3CCc4cccc(C(=O)Nc5nc6cccnc6s5)c4C3)ccc2-c2cnn(CC3CCCCC3)c2C)C(C)(C)C)cc1 [I-413] | > 10 µM
50 to 75% | > 1 µM | > 3 µM | C#Cc1ccc([C@H](CO)NC(=O)[C@@H]2C[C@@H](O)CN2C(=O)[C@@H](NC(=O)CCNCCS(=O)(=O)NC(=O)c2nc(N3CCc4cccc(C(=O)Nc5nc6cccnc6s5)c4C3)ccc2-c2cnn(CC(C)C)c2C)C(C)(C)C)cc1 [I-414] | > 10 µM
50 to 75% | > 1 µM | > 3 µM | Cc1ncsc1-c1ccc([C@H](C)NC(=O)[C@@H]2C[C@@H](O)CN2C(=O)[C@@H](NC(=O)CCCCCS(=O)(=O)NC(=O)c2nc(N3CCc4cccc(C(=O)Nc5nc6ccccc6s5)c4C3)ccc2-c2cnn(CC3CCCCC3)c2C)C(C)(C)CCOP(=O)(O)O)cc1 [I-415] | > 10 µM
> 75% | 0.1 to 0.5 µM | > 3 µM | Cc1ncsc1-c1ccc([C@H](C)NC(=O)[C@@H]2C[C@@H](O)CN2C(=O)[C@H](NC(=O)CCCCCS(=O)(=O)NC(=O)c2nc(N3CCc4cccc(C(=O)Nc5nc6ccccc6s5)c4C3)ccc2-c2cnn(CC3CCCCC3)c2C)C(C)(C)CCOP(=O)(O)O)cc1 [I-416] | > 10 µM
50 to 75% | > 1 µM | > 3 µM | C#Cc1ccc(CNC(=O)[C@@H]2C[C@@H](O)CN2C(=O)[C@@H](NC(=O)CCCCCS(=O)(=O)NC(=O)c2nc(N3CCc4cccc(C(=O)Nc5nc6ccccc6s5)c4C3)ccc2-c2cnn(CC3CCCCC3)c2C)C(C)(C)CCOP(=O)(O)O)cc1 [I-417] | > 10 µM
> 75% | 0.1 to 0.5 µM | 0.1 to 1 µM | C#Cc1ccc(CNC(=O)[C@@H]2C[C@@H](O)CN2C(=O)[C@H](NC(=O)CCCCCS(=O)(=O)NC(=O)c2nc(N3CCc4cccc(C(=O)Nc5nc6ccccc6s5)c4C3)ccc2-c2cnn(CC3CCCCC3)c2C)C(C)(C)CCOP(=O)(O)O)cc1 [I-418] | > 10 µM
> 75% | < 0.01 µM | < 0.1 µM | Cc1ncsc1-c1ccc([C@H](C)NC(=O)[C@@H]2C[C@@H](O)CN2C(=O)[C@@H](NC(=O)C2CCCN(c3ccc(S(=O)(=O)NC(=O)c4nc(N5CCc6cccc(C(=O)Nc7nc8ccccc8s7)c6C5)ccc4-c4cnn(CC5CCCCC5)c4C)cc3)C2)C(C)(C)C)cc1 (some centres unmarked) [I-419] | 1 to 10 µM
> 75% | 0.01 to 0.1 µM | < 0.1 µM | Cc1ncsc1-c1ccc([C@H](C)NC(=O)[C@@H]2C[C@@H](O)CN2C(=O)[C@@H](NC(=O)C#CC2CCN(S(=O)(=O)NC(=O)c3nc(N4CCc5cccc(C(=O)Nc6nc7ccccc7s6)c5C4)ccc3-c3cnn(CC4CCCCC4)c3C)CC2)C(C)(C)C)cc1 [I-420] | 1 to 10 µM
> 75% | 0.01 to 0.1 µM | 1 to 3 µM | Cc1ncsc1-c1ccc(CNC(=O)[C@@H]2C[C@@H](O)CN2C(=O)[C@@H](NC(=O)C2CN(CCCS(=O)(=O)NC(=O)c3nc(N4CCc5cccc(C(=O)Nc6nc7ccccc7s6)c5C4)ccc3-c3cnn(CC4CCCCC4)c3C)C2)C(C)(C)C)cc1 [I-421] | > 10 µM
> 75% | 0.1 to 0.5 µM | 0.1 to 1 µM | Cc1ncsc1-c1ccc(CNC(=O)[C@@H]2C[C@@H](O)CN2C(=O)[C@@H](NC(=O)C2CN(CCS(=O)(=O)NC(=O)c3nc(N4CCc5cccc(C(=O)Nc6nc7ccccc7s6)c5C4)ccc3-c3cnn(CC4CCCCC4)c3C)C2)C(C)(C)C)cc1 [I-422] | > 10 µM
> 75% | < 0.01 µM | < 0.1 µM | Cc1cc(N(C)c2ccc(-c3cnn(CC45CC6CC(CC(C6)C4)C5)c3C)c(C(=O)NS(=O)(=O)CCCCCc3cccc4c3n(C)c(=O)n4C3CCC(=O)NC3=O)n2)nnc1Nc1nc2ccccc2s1 (centres unmarked) [I-423] | 1 to 10 µM
> 75% | < 0.01 µM | < 0.1 µM | Cc1cc(N(C)c2ccc(-c3cnn(CC45CC6CC(CC(C6)C4)C5)c3C)c(C(=O)NS(=O)(=O)CCCCCc3ccc4c(c3)n(C)c(=O)n4C3CCC(=O)NC3=O)n2)nnc1Nc1nc2ccccc2s1 (centres unmarked) [I-424] | 1 to 10 µM
> 75% | < 0.01 µM | < 0.1 µM | Cc1c(-c2ccc(N3CCc4cccc(C(=O)Nc5nc6ccccc6s5)c4C3)nc2C(=O)NS(=O)(=O)CCCCCc2ccc3c(c2)n(C)c(=O)n3C2CCC(=O)NC2=O)cnn1CC1CCCCC1 (centres unmarked) [I-425] | 1 to 10 µM
> 75% | < 0.01 µM | < 0.1 µM | Cc1c(-c2ccc(N3CCc4cccc(C(=O)Nc5nc6ccccc6s5)c4C3)nc2C(=O)NS(=O)(=O)CCCCCc2cccc3c2n(C)c(=O)n3C2CCC(=O)NC2=O)cnn1CC1CCCCC1 (centres unmarked) [I-426] | 1 to 10 µM
> 75% | 0.01 to 0.1 µM | < 0.1 µM | Cc1cc(N(C)c2ccc(-c3cnn(CC45CC6CC(CC(C6)C4)C5)c3C)c(C(=O)NS(=O)(=O)CCN(C)CCC(=O)N[C@H](C(=O)N3C[C@H](O)C[C@H]3C(=O)N[C@@H](C)c3ccc(-c4scnc4C)cc3)C(C)(C)C)n2)nnc1Nc1nc2ccccc2s1 [I-428] | > 10 µM
> 75% | 0.01 to 0.1 µM | 0.1 to 1 µM | C#Cc1ccc(CNC(=O)[C@@H]2C[C@@H](O)CN2C(=O)[C@@H](NC(=O)CCNCCS(=O)(=O)NC(=O)c2nc(N(C)c3cc(C)c(Nc4nc5ccccc5s4)nn3)ccc2-c2cnn(CC34CC5CC(CC(C5)C3)C4)c2C)C(C)(C)C)cc1 [I-429] | > 10 µM

Source: US20250197387A1, “BCL-XL DEGRADERS AND USES THEREOF” (Kymera Therapeutics, Inc., priority 2021, published 2025)
